Assay: xn = mol fraction of the nth substance listed
Details: 101 kPa, Liquid; for speed of sound: Sing-around technique in a fixed-path interferometer; for mass density: Vibrating tube method

CCC(C)Cl (stereo unspecified) [2-chlorobutane] + CCCCCC
Details	mass density, 283.15 K [kg/m3]	mass density, 298.15 K [kg/m3]	mass density, 313.15 K [kg/m3]	speed of sound, 283.15 K [m/s]	speed of sound, 298.15 K [m/s]	speed of sound, 313.15 K [m/s]
x2 = 0	884.34	867.474	850.266	1127.7	1066.2	1005.3
x2 = 0.0509	870.642	853.976	836.967	1126.4	1064.5	1003.3
x2 = 0.1002	857.772	841.229	824.438	1125.2	1063.1	1001.6
x2 = 0.1802	837.449	821.198	804.693	1124	1061.4	999.26
x2 = 0.3029	807.817	791.981	775.929	1123.1	1059.7	996.75
x2 = 0.4045	784.524	769.021	753.339	1123.4	1059.3	995.71
x2 = 0.4991	763.875	748.682	733.339	1124.5	1059.8	995.56
x2 = 0.5974	743.353	728.495	713.496	1126.5	1061.1	996.3
x2 = 0.6992	723.059	708.519	693.898	1129.5	1063.4	998
x2 = 0.7996	704.031	689.807	675.523	1133.3	1066.8	1000.8
x2 = 0.8981	686.218	672.305	658.349	1138.3	1071.1	1004.5
x2 = 0.9477	677.555	663.793	650.005	1141.4	1073.7	1006.9

CCC(C)Cl (stereo unspecified) [2-chlorobutane] + CCCCCCC
mass density [kg/m3]
Details	283.15 K	298.15 K	313.15 K
x2 = 0	884.34	867.474	850.266
x2 = 0.0506	870.755	854.132	837.236
x2 = 0.0989	858.319	841.994	825.335
x2 = 0.2012	833.412	817.61	801.474
x2 = 0.3016	810.786	795.463	779.843
x2 = 0.3997	790.254	775.401	760.214
x2 = 0.4984	771.15	756.698	741.962
x2 = 0.5994	752.976	738.95	724.63
x2 = 0.6994	736.272	722.581	708.679
x2 = 0.7996	720.631	707.328	693.773
x2 = 0.9006	705.927	692.97	679.768
x2 = 0.9503	699.08	686.282	673.245

CCCCCCC [heptane] + CC(C)(C)Cl
x1 = 1
Details	mass density [kg/m3]	speed of sound [m/s]
283.15 K	692.422	1195.7
298.15 K	679.783	1131
313.15 K	666.908	1067.2

CCCCCCC [heptane] + CC(C)CCl
x1 = 1
Details	mass density [kg/m3]	speed of sound [m/s]
283.15 K	692.422	1195.7
298.15 K	679.783	1131
313.15 K	666.908	1067.2

CCCCCCC [heptane] + CCC(C)Cl
Details	mass density, 283.15 K [kg/m3]	mass density, 298.15 K [kg/m3]	mass density, 313.15 K [kg/m3]	speed of sound, 313.15 K [m/s]
x1 = 1	692.422	679.783	666.908	–
x2 = 0	–	–	–	1005.3

CCCCCCC [heptane] + CCCCCl
x1 = 1
Details	mass density [kg/m3]
283.15 K	692.422
298.15 K	679.783
313.15 K	666.908

CCCCCC [hexane] + CC(C)(C)Cl
x1 = 1
Details	mass density [kg/m3]	speed of sound [m/s]
283.15 K	668.609	1145.1
298.15 K	654.96	1077
313.15 K	641.39	1009.9

CCCCCC [hexane] + CC(C)CCl
x1 = 1
Details	mass density [kg/m3]	speed of sound [m/s]
283.15 K	668.609	1145.1
298.15 K	654.96	1077
313.15 K	641.39	1009.9

CCCCCC [hexane] + CCC(C)Cl
x1 = 1
Details	mass density [kg/m3]	speed of sound [m/s]
283.15 K	668.609	1145.1
298.15 K	654.96	1077
313.15 K	641.39	1009.9

CCCCCC [hexane] + CCCCCl
x1 = 1
Details	mass density [kg/m3]	speed of sound [m/s]
283.15 K	668.609	1145.1
298.15 K	654.96	1077
313.15 K	641.39	1009.9

— the NIST ThermoML archive (doi:10.1016/j.jct.2010.06.008)
